Consider seven molecules from BindingDB's records for doi:10.1021/cb400075f (Boehringer Ingelheim (Canada), 2013).

The target of assay [1] is T1, Gag-Pol polyprotein (Human immunodeficiency virus type 1 group M subtype B (isolate NY5), UniProt P12497). Description: Capsid Assembly Assay.
Assay [2] concerns the target T1, Gag-Pol polyprotein. Description: Capsid Assembly Assay. The text has this: In vitro capsid assembly assay (CAA) was used in a HTS to identify potential inhibitors of capsid assembly.
The source holds these as a separate data set.

`CN(C)CCCn1c(-c2c[nH]nc2-c2ccccc2)nc2cc(-c3ccc(C(=O)O)cc3)ccc21` [Benzimidazole Inhibitor, 1] returned a dissociation constant (Kd) in assay [1] of 43000 nM. In assay [2], this molecule had a half-maximal inhibitory concentration (IC50) of 6100 nM. As to `CN(C)CCCn1c(-c2c[nH]nc2-c2ccc(C(F)(F)F)cc2)nc2cc(-c3ccc(C(=O)O)cc3)ccc21` [Benzimidazole Inhibitor, 2], the equilibrium dissociation constant (Kd) in assay [1] stood at 4300 nM. This molecule also had an IC50 in assay [2] of 1200 nM.

The molecule `O=C(O)c1ccc(-c2ccc3c(c2)nc(-c2c[nH]nc2-c2ccc(C(F)(F)F)cc2)n3CCCn2ccnc2)cc1` [Benzimidazole Inhibitor, 3] registered a Kd in assay [1] of 8000 nM. The molecule further yielded a half-maximal inhibitory concentration (IC50) in assay [2] of 1400 nM.

For `O=C(O)c1ccc(-c2ccc3c(c2)nc(-c2c[nH]nc2-c2cccc(Cl)c2)n3CCCn2ccnc2)cc1` [Benzimidazole Inhibitor, 4], half-maximal inhibition in assay [2] (IC50) required 1200 nM.

The molecule `O=C(O)c1ccc(-c2ccc3c(c2)nc(-c2c[nH]nc2-c2ccc(C(F)(F)F)cc2)n3CCCN2CCCCC2)cc1` [Benzimidazole Inhibitor, 5] gave a concentration for half-maximal inhibition (IC50) in assay [2] of 670 nM.

Molecule `O=C(O)c1ccc(-c2ccc3c(c2)nc(-c2c[nH]nc2-c2ccc(Cl)c(Cl)c2)n3CCCNC2CCCCC2)cc1` [Benzimidazole Inhibitor, 6] gave a Kd in assay [1] of 500 nM. This molecule also displayed an IC50 in assay [2] of 350 nM. As to `COCCN=CC1C(=O)N(C)c2ccc(C(F)(F)F)cc2N(c2ccccc2)C1=O` (stereo unspecified) [Benzodiazepine Inhibitor, 7], the half-inhibitory concentration (IC50) in assay [2] was 890 nM.

In general, Kd refers to a measure of binding affinity in units of concentration. The term IC50 denotes the concentration needed to halve the response being measured. The low end stands for greater potency in that assay, the high end for weaker potency in that assay.
